Experimental data taken from patent US10500209B2, “Quinazolinones as bromodomain inhibitors” (Zenith Epigenetics Ltd., priority 2013, dated 2019).

Key:
[1] = target: T1, Brd4 bromodomain 1 (BRD4(1)) (Homo sapiens, UniProt O60885); assay: Inhibition of tetra-acetylated histone H4 binding to BET bromodomains (TR-FRET); parameters: key: Active: Compounds with an IC50 value less than 30 μM were deemed to be active.; Not Active: Compounds with an IC50 value less than 30 μM were deemed to be active; settings: first bromodomain of Brd4, tetra-acetylated histone H4 peptide
T1 construct: made in house; host or cells: E. coli BL21(DE3)
In short: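 N-terminally His-tagged bromodomain (200 nM) from E. coli was mixed with biotinylated tetra-acetylated histone H4 peptide (25-50 nM), Eu-streptavidin and XL665 anti-His, plus compound, in HEPES pH 7.4 buffer with 0.2% DMSO. After 2 h at room temperature, the 665/620 nm TR-FRET decrease gave IC50 from dose-response curves.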

[2] = tested on: c-myc in MV4-11 cells; assay: Inhibition of c-myc expression in cancer cell lines (mRNA, real-time PCR); format: cell-based, Human; parameters: key: Active: Compounds with an IC50 value less than 30 μM were deemed to be active.; Not Active: Compounds with an IC50 value less than 30 μM were deemed to be active; settings: 3 h
Procedure: MV4-11 cells (2.5×10^4 cells) were plated in 96 well U-bottom plates with test compound or DMSO (0.1%), and incubated for 3 h at 37° C. Cells were then harvested by centrifugation, lysed, and mRNA was isolated using the mRNA catcher plus kit (Invitrogen). Reverse transcription of the mRNA and duplex amplification of the c-myc and cyclophilin cDNAs was performed using the RNA Ultrasense kit (Invitrogen) and a ViiA7 real-time PCR machine (Applied Biosystems). IC50 values were determined from a dose response curve.

[3] = tested on: human AML MV-4-11 cells; assay: Inhibition of cell proliferation in cancer cell lines (CellTiter Aqueous One); format: cell-based; parameters: key: Active: Compounds with an IC50 value less than 30 μM were deemed to be active.; Not Active: Compounds with an IC50 value less than 30 μM were deemed to be active; settings: 72 h
In short: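 IC50 values come from blank-corrected proliferation relative to DMSO controls, read as 490 nm absorbance 3–4 h after CellTiter Aqueous One addition. Before that, cells seeded at 5×10^4/well were exposed for 72 h (37° C, 5% CO2) to triplicate two-fold compound dilutions spanning 30–0.2 μM.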

[4] = tested on: hIL-6 mRNA; assay: Inhibition of hIL-6 mRNA transcription in LPS-stimulated U937 macrophages; format: cell-based, human; parameters: key: Active: Compounds with an IC50 value less than 30 μM were deemed to be active.; Not Active: Compounds with an IC50 value less than 30 μM were deemed to be active; settings: U937 cells differentiated with PMA, LPS stimulation, 3 h
Procedure: In this example, hIL-6 mRNA in tissue culture cells was quantitated to measure the transcriptional inhibition of hIL-6 when treated with a compound of the present disclosure.
A human leukemic monocyte lymphoma cell line (U937) was plated (3.2×10^4 cells per well) in a 96-well plate in 100 μL RPMI-1640 containing 10% FBS and penicillin/streptomycin, and differentiated into macrophages for 3 days in 60 ng/mL PMA ([…]) at 37° C. in 5% CO2 prior to the addition of the compound of interest. The cells were pretreated for 1 h with the test compound prior to stimulation with 1 ug/mL lipopolysaccharide from Escherichia coli. The cells were incubated at 37° C. for 3 h before the cells were harvested. At time of harvest, the spent media was removed from the cells and the cells were rinsed in 200 μL PBS. Cell lysis solution (70 μL) was added the cells in each well and incubated for 5-10 min at room temperature, to allow for complete cell lysis and detachment. mRNA was then prepared using the “mRNA Catcher PLUS plate” (Invitrogen), according to the protocol supplied. After the last wash, as much wash buffer as possible was aspirated without allowing the wells to dry. Elution buffer (E3, 70 μL) was then added to each well. mRNA was then eluted by incubating the mRNA Catcher PLUS plate with Elution Buffer for 5 min at 68° C. and then immediately placing the plate on ice.
The eluted mRNA isolated was then used in a one-step quantitative real-time PCR reaction, using components of the Ultra Sense Kit together with Applied Biosystems primer-probe mixes. Real-time PCR data was analyzed, normalizing the Ct values for hIL-6 to an internal control, prior to determining the fold induction of each unknown sample, relative to the control.

| FRET activity BRD4(1) [1] | c-myc activity (IC50 < 30 μM) [2] | Cell Proliferation activity (IC50 < 30 μM) [3] | IL-6 activity (IC50 < 30 μM) [4] | melting point | Compound |
| --- | --- | --- | --- | --- | --- |
| Active | Active | Active | Active | 170 to 172 °C | COc1cc(OC)c2c(=O)[nH]c(-c3ncccc3NC3CCN(C(C)C)CC3)nc2c1 [Example 18, 2-(3-((1-Isopropylpiperidin-4-yl)amino)pyridin-2-yl)-5,7-dimethoxyquinazolin-4(3H)-one] |
| Active | Active | Active | Active | 227 to 228 °C | COc1ccc(-c2nc3cc(OC)cc(OC)c3c(=O)[nH]2)c(NCCN2CCN(C(C)C)CC2)c1 [Example 22, 2-(2-((2-(4-Isopropylpiperazin-1-yl)ethyl)amino)-4-methoxyphenyl)-5,7-dimethoxyquinazolin-4(3H)-one] |
| Active | Active | Active | Active | 225 to 228 °C | COc1ccc(-c2nc3cc(OC)cc(OC)c3c(=O)[nH]2)c(NCCCN2CCNCC2)c1 [Example 28, 5,7-Dimethoxy-2-(4-methoxy-2-[3-(piperazin-1-yl)propylamino]phenyl)quinazolin-4(3H)-one] |
| Active | Active | Active | Active | 218 to 219 °C | COc1cc(OC)c2c(=O)[nH]c(-c3ncccc3NC3CCN(C(=O)C(F)(F)F)CC3)nc2c1 [Example 46, 5,7-Dimethoxy-2-(3-((1-(2,2,2-trifluoroacetyl)piperidin-4-yl)amino)pyridin-2-yl)quinazolin-4(3H)-one] |
| Active | Active | Active | Active | 209 to 210 °C | COc1cc(OC)c2c(=O)[nH]c(-c3ncccc3NC3CCN(C(=O)C(C)(C)C)CC3)nc2c1 [Example 48, 5,7-Dimethoxy-2-(3-((1-pivaloylpiperidin-4-yl)amino)pyridin-2-yl)quinazolin-4(3H)-one] |
| Active | Active | Active | Active | 261 to 262 °C | COc1cc(OC)c2c(=O)[nH]c(-c3ncccc3NC3CCN(C(=O)C(=O)N(C)C)CC3)nc2c1 [Example 51, 2-(4-((2-(5,7-Dimethoxy-4-oxo-3,4-dihydroquinazolin-2-yl)pyridin-3-yl)amino)piperidin-1-yl)-N,N-dimethyl-2-oxoacetamide] |
| Active | Active | Not Active | Active | 151 to 152 °C | CCNC(=O)N1CCC(Nc2cccnc2-c2nc3cc(OC)cc(OC)c3c(=O)[nH]2)CC1 [Example 52, 4-((2-(5,7-dimethoxy-4-oxo-3,4-dihydroquinazolin-2-yl)pyridin-3-yl)amino)-N-ethylpiperidine-1-carboxamide] |
| Active | Active | Active | Active | 165 to 166 °C | COC(=O)C(=O)N1CCC(Nc2cccnc2-c2nc3cc(OC)cc(OC)c3c(=O)[nH]2)CC1 [Example 55, Methyl-2-(4-((2-(5,7-dimethoxy-4-oxo-3,4-dihydroquinazolin-2-yl)pyridin-3-yl)amino)piperidin-1-yl)-2-oxoacetate] |
| Active | Active | Active | Active | 235 to 237 °C | COc1cc(OC)c2c(=O)[nH]c(-c3ncccc3NCCNC(=O)C(C)C)nc2c1 [Example 56, N-(2-((2-(5,7-Dimethoxy-4-oxo-3,4-dihydroquinazolin-2-yl)pyridin-3-yl)amino)ethyl)isobutyramide] |
| Active | Active | Not Active | Active | 230 to 231 °C | COc1cc(OC)c2c(=O)[nH]c(-c3ncccc3NCCCNC(=O)C(C)C)nc2c1 [Example 57, N-(3-((2-(5,7-Dimethoxy-4-oxo-3,4-dihydroquinazolin-2-yl)pyridin-3-yl)amino)propyl)isobutyramide] |
| Active | Active | Active | Active | 290 to 291 °C | COc1cc(OC)c2c(=O)[nH]c(-c3ncccc3NC3CCN(C(=O)C(C)O)CC3)nc2c1 (centres unmarked) [Example 60, 2-(3-((1-(2-hydroxypropanoyl)piperidin-4-yl)amino)pyridin-2-yl)-5,7-dimethoxyquinazolin-4(3H)-one] |
| Active | Active | Active | Active | 173 to 176 °C | COc1cc(OC)c2c(=O)[nH]c(-c3ncc(OCCO)cc3NC3CCN(C(=O)C(C)C)CC3)nc2c1 [Example 64, 2-[5-(2-Hydroxyethoxy)-3-(1-isobutyroylpiperidin-4-ylamino)pyridin-2-yl]-5,7-dimethoxyquinazolin-4(3H)-one] |
| Active | Active | Active | Active | 219 to 221 °C | CCNc1cc(OC)c2c(=O)[nH]c(-c3ncccc3NC3CCN(C(C)C)CC3)nc2c1 [Example 69, 7-(Ethylamino)-2-(3-((1-isopropylpiperidin-4-yl)amino)pyridin-2-yl)-5-methoxyquinazolin-4(3H)-one] |
